Among the data in PubChem BioAssay AID1557 (Sanford-Burnham Center for Chemical Genomics, 2009) are effective permeability pH 7.4, effective permeability pH 5.0 and effective permeability pH 6.2 values, retold here.

The series relates to PAMPA artificial membrane permeability, UV readout, 30 min. Kind of series: PAMPA effective permeability – biophysical, pH 7.4, 6.2, 5.0, ADME assay, late-stage follow-up (AID 1557). Conditions: at 50 µM, stronger effect = higher value. (PAMPA measures passive passage across an artificial lipid membrane.)

The source made the active and inactive calls. The rule behind the calls is not given here.

For `C=CCn1c(SCC(=O)c2ccc(O)c(O)c2)nnc1-c1ccccc1OC`, the effective permeability pH 7.4 is 58 10-6 cm/s (inactive). Besides, the effective permeability pH 5.0 (measured here: permeability at pH 5.0) is 90 10-6 cm/s. Under “measured here: permeability at pH 6.2”, the effective permeability pH 6.2 was 98 10-6 cm/s.
